Biological target: T1, SARS-CoV-2 M^pro (main protease) (Severe acute respiratory syndrome coronavirus 2, UniProt P0DTD1)
T1 construct: gene rep
Assay: FRET peptide cleavage assay, Morrison fit
Assay type: biochemical

With `O=c1c(O)c(-c2ccc(O)c(O)c2)oc2cc(O)ccc12` [Fisetin] the Ki was 41.8 ± 2.1 nM.
